The text below walks through data of patent US20120270851A1, “USE OF […] THE TREATMENT OR PREVENTION OF MALARIA” (SANOFI, priority 2009, published 2012).

Like-named read-outs stand apart in the source and are kept apart here.

The subject of assay [1] is P. vivax. The following applies: read-out: EC50 (effective concentration 50); blood isolates of P. vivax from patients, north-west Thailand; FIG. 1. How it is done: (§1) In Vitro Evaluation of the Efficacy of Ferroquine Versus Other Reference Antimalaria Agents, on Blood Isolates Infected with P. vivax
(§2) The test that follows is performed on 110 isolates of P. vivax, collected in the north-west of Thailand (Tak province) on consenting patients, infected with P. vivax and in the acute phase of the infection, who came for consultation at the Shoklo Malaria Research Unit (SMRU).
(§3) The samples are collected 5 hours after their arrival and placed in 5 ml heparinized tubes, at room temperature.
(§4) The platelets and leukocytes are removed from these isolates, by analogy with the method described in Kanlaya et al., Malaria Journal, 2009, 8:115.

In assay [2] the test system is P. vivax. The following applies: FIG. 2. How it is done:
as §1, §2, §3, §4
Russell, B. et al. 2008, Antimicrob. Agents Chemother. 52:1040-5.

As for ferroquine, the EC50 with P. vivax [1] was around 6 nM. Further, the IC50 in the assay on P. vivax [2] (read-out: IC50 (inhibitory concentration 50), mature trophozoite stage, mature trophozoite stage of P. vivax) stood at 21 nM; in the assay on P. vivax [2] (read-out: IC50 (inhibitory concentration 50), ring stage, young immature trophozoites (ring stage) of P. vivax), 14 nM.
